Consider seven molecules from patent US4874759A, “5-Hydroxyindole-3-carboxylic acid amide compounds, pharmaceutical compositions and use” (Yoshitomi Pharmaceutical Industries, Ltd., priority 1987, dated 1989).

The subject of one data set is left coronary artery. Kind of data set: Action on coronary blood flow (perfused left coronary artery of anesthetized dog). It counts as in vivo, mongrel adult dog. The following applies: intracoronary, dose increasing coronary blood flow to 50% of the effect of 3 μg Nifedipine. How it is done:
A mongrel adult dog was anesthetized by intravenous administration with sodium pentobarbital at the dose of 30 mg/kg body weight. In accordance with the method by Yago et al [Folia pharmacologica japonica, vol. 57, p. 380 (1961)], the left coronary artery was perfused and the volume of blood flow was measured. The test compounds were administered in the coronary artery at a dosage of 10 to 30 μl. The effects of the test compounds on the coronary blood flow were represented by ED50 (μg) which was determined as the dose required for increasing the coronary blood flow to the level of 50% of the effect which was attained by administering the coronary artery 3 μg of Nifedipine [dimethyl 2,6-dimethyl-4-(2-nitrophenyl)-1,4-dihydropyridine-3,5-dicarboxylate].

Another data set relates to right vertebrartery. In words: Action on vertebrarterial blood flow (perfused right vertebral artery of anesthetized dog). It counts as in vivo, mongrel adult dog. The following applies: into vertebral artery, maximum increase by 100 μg papaverine hydrochloride = 100%. How it is done: After mongrel adult dog was anesthetized by intravenous administration of sodium pentobarbital at the dose of 25 mg/kg body weight, the right vertebrartery was perfused and the volume of blood flow was measured. The test compounds were administered in the vertebral artery.
With the maximum increase rate in the blood flow being taken as 100% when 100 μg of papaverine hydrochloride (1-[(3,4-dimethoxyphenyl)methyl]-6,7-dimethoxyisoquinoline hydrochloride) was administered in the vertebral artery, the effects of the test compounds were represented by ED100 (μg) which denotes the dose required for attaining an increased rate of the blood flow of 100%.

A further data set concerns the target T1, 5-lipoxygenase (Cavia porcellus, UniProt A0A286X958).
T1 construct: supernatant fraction of intraperitoneal polymorph leukocyte of guinea pigs was prepared; from tissue; host or cells: peritoneal polymorphonuclear leukocytes of male guinea pigs (casein-elicited), 105,000×g supernatant
T1 sequence (A0A286X958 1-674): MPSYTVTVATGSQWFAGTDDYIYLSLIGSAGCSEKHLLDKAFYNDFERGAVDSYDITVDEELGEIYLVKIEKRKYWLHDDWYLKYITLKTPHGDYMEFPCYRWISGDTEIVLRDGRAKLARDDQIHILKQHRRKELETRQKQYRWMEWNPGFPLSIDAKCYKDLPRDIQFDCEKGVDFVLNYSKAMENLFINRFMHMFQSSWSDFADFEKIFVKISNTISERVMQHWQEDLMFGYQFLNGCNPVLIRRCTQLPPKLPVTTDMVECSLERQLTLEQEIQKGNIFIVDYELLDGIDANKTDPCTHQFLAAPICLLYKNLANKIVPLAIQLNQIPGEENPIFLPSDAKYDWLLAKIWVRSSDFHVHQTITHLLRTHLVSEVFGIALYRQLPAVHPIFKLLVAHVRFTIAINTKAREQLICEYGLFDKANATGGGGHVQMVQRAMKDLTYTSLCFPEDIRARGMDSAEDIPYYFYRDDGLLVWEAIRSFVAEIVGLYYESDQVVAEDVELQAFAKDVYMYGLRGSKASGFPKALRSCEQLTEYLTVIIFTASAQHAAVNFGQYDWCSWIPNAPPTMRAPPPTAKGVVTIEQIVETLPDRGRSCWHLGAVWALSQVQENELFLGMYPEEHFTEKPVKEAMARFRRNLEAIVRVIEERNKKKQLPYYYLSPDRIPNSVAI
Kind of data set: 5-Lipoxygenase-inhibitory action (5-HETE production from arachidonic acid). Type of data set: biochemical. To be noted: 3.4 μM [1-14C] arachidonic acid, 105,000×g supernatant of guinea pig polymorph leukocyte, 30° C., 3 minutes; read-out: 50% inhibitory concentration against the production of 5-HETE. How it is done:
In accordance with the method of Ochi et al (J. Biol. Chem., vol. 258, pp. 5754-5758 (1983)), the 105,000×g supernatant fraction of intraperitoneal polymorph leukocyte of guinea pigs was prepared, and the capability of producing 5-hydroxyeicosatetraenoic acid (5-HETE) from arachidonic acid was assayed.
Male guinea pigs weighing about 500 g were intraperitoneally administered with 1/10 volume (at the dose of 10 ml/100 g body weight) of a 2% casein solution and operated in the abdomen 16-18 hours after the administration. The intraperitoneal effusion was taken and the insdie of the abdomen was washed with a saline solution containing 10 mM phosphate buffer solution (pH 7.4) twice. The obtained effusion and the washing solution were collected and centrifuged at 150×g for five minutes. A 0.2% saline solution was added to the sediment, followed by hypotonic treatment to subject the mixed erythrocyte to hemolysis. After a 1.6% saline solution was added thereto to make the mixture isotonic, it was centrifuged in the same manner and suspended in 50 mM Hepes buffer solution (pH 8.0). The suspension was treated with supersonic waves (by Branson sonifier, model 185) and centrifuged at 10,000×g for 10 minutes. The supernatant was further centrifuged at 105,000×g for 60 minutes. The supernatant thus obtained was taken as the 5-lipoxygenase fraction which was freezed to -70° C. to be preserved. […]

Data set [1] in a line: Diuretic action (oral administration to rats; urine volume and electrolytes excreted within 6 hours). Type of data set: in vivo, Male Wistar strain rats. The following applies: rat, p.o., average value ± average error. How it is done: Male Wistar strain rats (each weighing 180 to 220 g, six animals per group) were subjected to the experiment after they had been fasted for 18 hours and further deprived of food and water for 3 hours.
After the rats were orally administered with test compounds suspended in a 0.9% saline solution at the dose of 25 ml/kg, each of them was put in a metabolic cage. The urine excreted within 6 hours after the administration was collected, and the urine volume and sodium (Na), potassium (K) and chlorine (Cl) ions were assayed. The urine sodium and potassium ions were measured by the flame spectrophotometry and the chlorine ions were measured by the chloride counter.
The test compounds were the compounds described below in Examples and the following (as applies to the following Pharmacological Experimental Examples), and the compounds numbers respectively correspond to the compound numbers described at the end of the compound names recited in Examples and the following. In the table, each of the numerals represents average value±average error and the mark * designates that the value is statistically significant as compared with the control by P<0.05 and mark ** designates that the value is statistically signficant by P<0.01.

Data set [2] in a line: Acute toxicity (mortality) in mice. Type of data set: in vivo, ddY strain mice. To be noted: ddY mice, 300 mg/kg.

Structures are written as SMILES.

As to `CCCCN(CCCC)C(=O)c1c(C)n(-c2ccccc2)c2cc(C(=O)CC)c(O)c(CN3CCCCC3)c12` [Compound (25), N,N-Dibutyl-5-hydroxy-2-methyl-1-phenyl-4-piperidinomethyl-6-propionylindole-3-carboxamide], in the data set on left coronary artery, the “Coronary vasodilating action, ED50” value worked out at 22 µg. Moreover, the “Vertebrarterial vasodilating action, ED100” value with right vertebrartery amounted to 76 µg. Also, the IC50 at 5-lipoxygenase came out at 19 µM.
Consider `Cc1[nH]c2cc(Br)c(O)c(CN3CCCCC3)c2c1C(=O)N1CCOCC1` [Compound (2), 4-(6-Bromo-5-hydroxy-2-methyl-4-piperidinomethyl-1H-indol-3-ylcarbonyl)morpholine], for which, in data set [1] (3.0 mg/kg), the “Excretion of Electrolyte, Cl” value is reported as 349 ± 27 μeq/100 g body weight/ 6 hrs; the “Excretion of Electrolyte, K” value is reported as 95 ± 7 μeq/100 g body weight/ 6 hrs; the “Excretion of Electrolyte, Na” value is on record as 284 ± 30 μeq/100 g body weight/ 6 hrs; the “Excretion of Electrolyte, Na/K” value stood at 3.1 ± 0.3. Further, the “Urine Volume” value in data set [1] (3.0 mg/kg) is 2.0 ± 0.2 ml/100 g body weight/ 6 hrs. Besides, in data set [2] (intraperitoneal), the Death of mice entry was “none of them was observed to die”. For the same molecule, in data set [2] (oral), the Death of mice result is on record as “none of them was observed to die”.
In the case of `CCCCN(CCCC)C(=O)c1c(C)n(CCc2ccccc2)c2cc(C(=O)CC)c(O)c(CN3CCCCC3)c12` [Compound (4), N,N-Dibutyl-5-hydroxy-2-methyl-1-(2-phenylethyl)-4-piperidinomethyl-6-propionylindole-3-carboxamide], the “Coronary vasodilating action, ED50” value with left coronary artery stood at 12 µg. Also, the “Vertebrarterial vasodilating action, ED100” value with right vertebrartery came out at 63 µg. Also, the IC50 at 5-lipoxygenase is 20 µM.
Turning to `CCCCCCn1c(C)c(C(=O)N(CCCC)CCCC)c2c(CN3CCCCC3)c(O)c(C(=O)CC)cc21` [Compound (6), N,N-dibutyl-1-hexyl-5-hydroxy-2-methyl-4-piperidinomethyl-6-propionylindole-3-carboxamide], the “Coronary vasodilating action, ED50” value in the data set on left coronary artery was 10 µg. Further, in the data set with right vertebrartery, the “Vertebrarterial vasodilating action, ED100” value came out at 48 µg.
For the molecule `CCCCN(CCCC)C(=O)c1c(C)[nH]c2ccc(O)c(CN3CCCCC3)c12` [Compound (17), N,N-Dibutyl-5-hydroxy-2-methyl-4-piperidinomethylindole-3-carboxamide], in data set [1] (10.0 mg/kg), the “Excretion of Electrolyte, Cl” value is given as 358 ± 25 μeq/100 g body weight/ 6 hrs; the “Excretion of Electrolyte, K” value was 64 ± 4 μeq/100 g body weight/ 6 hrs; the “Excretion of Electrolyte, Na” value was 346 ± 28 μeq/100 g body weight/ 6 hrs; the “Excretion of Electrolyte, Na/K” value is given as 5.7 ± 0.9. Besides, the “Urine Volume” value in data set [1] (10.0 mg/kg) was 2.4 ± 0.2 ml/100 g body weight/ 6 hrs.
For the molecule `CCCCNC(=O)c1c(C)[nH]c2cc(Br)c(O)c(CN3CCCCC3)c12` [Compound (10), 6-Bromo-N-butyl-5-hydroxy-2-methyl-4-piperidinomethylindole-3-carboxamide], in data set [1] (10.0 mg/kg), the “Excretion of Electrolyte, Cl” value is on record as 379 ± 35 μeq/100 g body weight/ 6 hrs; the “Excretion of Electrolyte, K” value is reported as 73 ± 8 μeq/100 g body weight/ 6 hrs; the “Excretion of Electrolyte, Na” value was 402 ± 43 μeq/100 g body weight/ 6 hrs; the “Excretion of Electrolyte, Na/K” value was 5.8 ± 0.7. Besides, in data set [1] (10.0 mg/kg), the “Urine Volume” value is given as 2.6 ± 0.3 ml/100 g body weight/ 6 hrs.
`CCCCNC(=O)c1c(C)n(CCCC)c2ccc(O)c(CN3CCCCC3)c12` [Compound (8), 1,N-Dibutyl-5-hydroxy-2-methyl-4-piperidinomethylindole-3-carboxamide]: the “Coronary vasodilating action, ED50” value in the data set on left coronary artery was 63 µg. In addition, in the data set with right vertebrartery, the “Vertebrarterial vasodilating action, ED100” value turned out to be 58 µg.
